Laboratory results reported in patent US20250302846A1, “ANTIBIOTIC COMPOSITION AND METHODS OF USE THEREOF” (THE REGENTS OF THE UNIVERSITY OF COLORADO A BODY CORPORATE, priority 2022, published 2025).
Converted amounts (≈) assume the structure as drawn. Where two headings read alike, the source gives them in different places. Each block holds one molecule with its values, some of them ahead of it.

Columns and labels:
[1] = tested on: staphylococcal strains; experiment: MIC95 quoted for staphylococcal persister and biofilm experiments; assay type: cell-based; conditions: read-out: MIC95
Description: A-D) Overnight cultures of the indicated strains were treated at time 0 with DMSO, ciprofloxacin [4 μg/mL], vancomycin [10 μg/mL], or the corresponding MIC95 concentration of D66 (1x MIC95=130 μM, 49 μg/mL). Cultures were plated for enumeration of CFU at time points indicated. Mean and SEM of three biological replicates. E) RAW 264.7 macrophage-like cells and HeLa cells were infected with S. aureus USA300, at MOIs of 0.5 and 2.5, respectively. Cells were treated two hours after infection with DMSO (gray circle on Y axis), or dilutions of D66 from 40 μM. After 8 hours of infection, cells were lysed and plated for enumeration of CFU. Mean and SEM of biological duplicates performed with technical triplicates each with six dilutions of D66. The IC50 value that was calculatable is indicated.
Biofilm formation was monitored after 18 hours in TSB with subinhibitory concentrations of DMSO, rifampin (1x MIC95=0.05 μg/mL), vancomycin (1x MIC95=1 μg/mL), or D66 (1x MIC95=130 μM). A-D) Crystal violet staining for accumulated biofilm mass measured at A595. Mean and […]

[2] = tested on: RAW 264.7 cells; experiment: Mitochondrial membrane potential with TMRM; conditions: uninfected RAW 264.7 cells; D66 first two hours; CCCP 7 μM
[3] = tested on: S. Typhimurium; experiment: Propidium iodide membrane barrier assay; assay type: cell-based; conditions: LB with PMB [0.5 μg/mL]; D66 at 2x MIC95; SDS [0.005%] positive control
Description: FIG. 3A-F. D66 rapidly perturbs the bacterial cytoplasmic membrane with minor disruption of barrier function. Mid-log phase S. Typhimurium cells grown in LB with 0.5 μg/mL PMB were used for all experiments. A) Cell membrane potential was monitored with the fluorescent dye DiSC3 (5). Cells were treated at time 0 with DMSO, JD1 [70 μM], or D66. Data were normalized to DMSO at time 0 and corrected for the quenching effect of D66 (FIG. 6A, B) B) Cell membrane permeability was monitored by PI fluorescence. Cells were treated at time 0 with DMSO, SDS [0.005%] or D66. Samples were processed at the time points shown. A one-way ANOVA with a Dunnet's multiple comparison test, * P<0.005. C-F) Growth curves and kill-curves of cells treated at time 0 with either DMSO or D66. Culture aliquots were monitored for OD600 (C, E) or plated for enumeration of CFU (D, F). Data are presented as fold change. Mean and SEM of three biological replicates with technical triplicates are shown in all panels.
Propidium iodide membrane barrier assays: Compound, DMSO, or SDS was added to mid-log phase cells to the desired concentration, and cultures were sampled at 0, 10, 15, 20, 30 and 45 minutes. Five minutes before harvesting, PI [10 μg/mL] (Life Technologies) was added. Cells were pelleted, washed twice, resuspended in PBS, and monitored (ex535/em617 nm) using a BioTek Synergy H1 plate reader.

MIC ([1]; staphylococcal strains): 0.05 µg/mL (≈ 0.0608 µM)
Compound: CO[C@H]1/C=C/O[C@@]2(C)Oc3c(C)c(O)c4c(O)c(c(/C=N/N5CCN(C)CC5)c(O)c4c3C2=O)NC(=O)/C(C)=C\C=C\[C@H](C)[C@H](O)[C@@H](C)[C@@H](O)[C@@H](C)[C@H](OC(C)=O)[C@@H]1C [rifampin, reference compound]

Compound: N#CC(C#N)=NNc1cccc(Cl)c1 [CCCP, carbonyl cyanide m-chlorophenyl hydrazone, reference compound]
TMRM fluorescence (mitochondrial membrane potential) [2]: decreased TMRM fluorescence

Compound: CCCCCCCCCCCCOS(=O)(=O)[O-].[Na+] [SDS, reference compound]
time of treatment after which PI signal increased [3]: 10 min

Compound: CN[C@H](CC(C)C)C(=O)N[C@H]1C(=O)N[C@@H](CC(N)=O)C(=O)N[C@H]2C(=O)N[C@H]3C(=O)N[C@H](C(=O)N[C@H](C(=O)O)c4cc(O)cc(O)c4-c4cc3ccc4O)[C@H](O)c3ccc(c(Cl)c3)Oc3cc2cc(c3O[C@@H]2O[C@H](CO)[C@@H](O)[C@H](O)[C@H]2O[C@H]2C[C@](C)(N)[C@H](O)[C@H](C)O2)Oc2ccc(cc2Cl)[C@H]1O [vancomycin, reference compound]
MIC [1]: 1 µg/mL (≈ 0.69 µM)
